Data taken from paper PMC9377723 (Clinical Cancer Research, 2021).
Entries after “also recorded” stand apart in the source; their conditions may differ. Read-outs that look alike come from different tables or passages of the source.

Tests used:
[1] = test system: patients with HR+/HER2− advanced breast cancer; test: MONALEESA-7 adverse events; type: in vivo; conditions: adverse event of special interest
[2] = test system: HR+/HER2− advanced breast cancer; conditions: cited from earlier work
[3] = test system: HR+/HER2− advanced breast cancer; type: in vivo, patients; conditions: for Median PFS: updated analysis
[4] = Steady-state plasma pharmacokinetics; type: in vivo, patients
[5] = test system: plasma estradiol; test: Plasma estradiol concentration, baseline vs cycle 3 day 15; type: in vivo, patients
[6] = patients less than 40 years of age

CN(C)C(=O)c1cc2cnc(Nc3ccc(N4CCNCC4)cn3)nc2n1C1CCCC1 [Ribociclib, ribociclib]
Hepatobiliary toxicity, grade 3 or 4 [1]: 12% | Neutropenia, grade 3 or 4 [1]: 65% | Prolonged QT interval, grade 3 or 4 [1]: 2% | Median OS, prespecified second interim (final) analysis ([2]; median follow-up 34.6 months): not reached | Median PFS (primary endpoint) ([2]; primary analysis): 23.8 months | mOS (median overall survival) ([3]; Age: <40 years): 51.3 months | mOS (median overall survival) ([3]; Age: ≥40 years): 58.8 months | Increase in survival over the MONALEESA-7 placebo arm ([3]; All patients): 22% | Kaplan–Meier estimated OS at 48 months (survival rate at 4 years) ([3]; All patients): 60% | Median chemotherapy-free survival (CFS) ([3]; All patients): 42.4 months | PFS2 HR (95% CI) vs placebo ([3]; All patients): 0.68 | PFS2 Median ([3]; All patients): 44.2 mo | Patients who had died at data cut-off ([3]; All patients): 42% | Patients who received chemotherapy as a subsequent therapy at any time ([3]; All patients): 43% | Patients with disease progression on subsequent therapy or death (PFS2 events) ([3]; All patients): 53% | Patients with receipt of chemotherapy or death ([3]; All patients): 57% | Survival rate at 54 months ([3]; All patients): 53% | Improvement in OS over ET alone ([3]; All patients, 58.7 vs 48.0 months): 10.7 months | mOS (median overall survival) ([3]; All patients, median follow-up 53.5 months): 58.7 months | mOS (median overall survival) ([3]; Chemotherapy (metastatic): Yes): 47.2 months | mOS (median overall survival) ([3]; Disease-free interval: De novo): not reached | mOS (median overall survival) ([3]; Endocrine combination partner: NSAI and goserelin): 58.7 months | mOS (median overall survival) ([3]; Endocrine combination partner: Tamoxifen and goserelin): not estimable | Patients who died ([3]; Patients receiving an NSAI): 43% | Patients who died ([3]; Patients receiving tamoxifen): 39% | Delay in chemotherapy vs placebo, without censoring ([3]; difference in median chemotherapy-free survival): 16.0 month | Delay in chemotherapy vs placebo, censoring for death ([3]; difference in median time to first chemotherapy): 14.1 month | Median time to first chemotherapy (TTC) ([3]; in vivo): 50.9 months | Duration of first subsequent antineoplastic therapy after discontinuation of study treatment ([3]; overall): 7.5 months | Reduction in the risk of death [3, 6]: 35% | Median PFS [3, 6]: 29.7 months | Median PFS ([3]; patients ≥40 years of age): 26.4 months | Drug–drug interaction between ribociclib and NSAI partner ([4]; in vivo): No drug–drug interactions; also recorded: no apparent drug–drug interaction | Patients with estradiol below the minimum detectable limit (0.5 pg/mL) ([5]; 86 of 90 patients): 96% | Mean percentage decrease in plasma estradiol concentration compared with baseline ([5]; patients who received an NSAI): 89%

CC/C(=C(\c1ccccc1)c1ccc(OCCN(C)C)cc1)c1ccccc1 [Tamoxifen, tamoxifen]
Exposure with ribociclib versus placebo ([4]; tamoxifen 20 mg): approximately 2 times
